Reference: publication PMC8045006 (Heliyon, 2021)
“Also recorded” adds a separate entry of the source. Where two headings read alike, the source gives them in different places.

Tests used:
[1] = biological target: T1, Electrical (Torpedo californica) AChE (type VI-S) (Electrophorus electricus, UniProt O42275); assay: biochemical; format: biochemical
T1 construct: purchased Sigma-Aldrich (Steinheim, Germany) type VI-S
Protocol: (§1) Fluka provided potassium hydroxide, sodium hydrogen carbonate, potassium dihydrogen phosphate, and dipotassium hydrogen phosphate. Sigma-Aldrich (Steinheim, Germany) provided BuChE (E.C.3.1.1.8, from equine serum), Electrical ([…]) AChE (type VI-S), acetylthiocholine iodide, 5,5⸍-dithiobis [2-nitrobenzoic acid]
(§2) In order to set the derivatives’ stock solutions, they were dissolved in the dimethyl sulfoxide (DMSO). Then, we diluted them in the absolute ethanol for obtaining 3 varying concentrations for assay. The experiments were done in triplicate for each concentration. The assay solution included […], […] of phosphate buffer (0.1M, pH = 8), […] of 5 IU/mL butryl cholinesterase solution, and […] of inhibitor. Afterwards, the product was pre-incubated at 25 ᵒC for 10 min. Then, […] of butyrylthiocholine iodide was added as the substrate to the 24 wells for starting the reaction. […] For justifying non-enzymatic reaction, we conducted assays with a blank having all components except ButChE.
Moreover, AChE took the same assay for obtaining the derivatives’ anti-AChE activity.

[2] = biological target: T2, BuChE (E.C.3.1.1.8, from equine serum) (Equus caballus, UniProt P81908); assay: biochemical; format: biochemical
T2 construct: BuChE (E.C.3.1.1.8, from equine serum); purchased Sigma-Aldrich (Steinheim, Germany); host or cells: equine serum
Protocol: as §1
as §2, with “ButChE. […]” for “ButChE.”

[3] = Ellman's method, average ±SD, triplicate, read-out: AChE Inhibition [IC50 (μM)]
[4] = Ellman's method, average ±SD, triplicate, read-out: BuChE Inhibition [IC50 (μM)]
[5] = read-out: AChE Inhibition [IC50 (μM)]
[6] = read-out: BuChE Inhibition [IC50 (μM)]

T1 sequence (O42275 24-633): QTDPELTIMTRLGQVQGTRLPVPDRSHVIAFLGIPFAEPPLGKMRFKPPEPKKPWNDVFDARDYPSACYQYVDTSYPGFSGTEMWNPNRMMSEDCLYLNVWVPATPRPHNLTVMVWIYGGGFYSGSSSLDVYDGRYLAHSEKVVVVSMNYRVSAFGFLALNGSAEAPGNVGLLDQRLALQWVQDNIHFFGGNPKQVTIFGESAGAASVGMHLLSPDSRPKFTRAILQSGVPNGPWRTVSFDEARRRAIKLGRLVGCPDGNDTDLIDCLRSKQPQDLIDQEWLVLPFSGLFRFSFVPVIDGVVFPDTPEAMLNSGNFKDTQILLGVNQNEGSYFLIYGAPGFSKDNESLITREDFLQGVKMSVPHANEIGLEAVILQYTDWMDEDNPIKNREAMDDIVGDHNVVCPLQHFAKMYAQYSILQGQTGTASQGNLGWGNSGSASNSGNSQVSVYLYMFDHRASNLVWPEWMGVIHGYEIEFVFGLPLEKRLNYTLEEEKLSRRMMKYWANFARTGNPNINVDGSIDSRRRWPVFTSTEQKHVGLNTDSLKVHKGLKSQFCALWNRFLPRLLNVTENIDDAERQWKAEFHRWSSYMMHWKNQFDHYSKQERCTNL
T2 sequence (P81908 whole entry): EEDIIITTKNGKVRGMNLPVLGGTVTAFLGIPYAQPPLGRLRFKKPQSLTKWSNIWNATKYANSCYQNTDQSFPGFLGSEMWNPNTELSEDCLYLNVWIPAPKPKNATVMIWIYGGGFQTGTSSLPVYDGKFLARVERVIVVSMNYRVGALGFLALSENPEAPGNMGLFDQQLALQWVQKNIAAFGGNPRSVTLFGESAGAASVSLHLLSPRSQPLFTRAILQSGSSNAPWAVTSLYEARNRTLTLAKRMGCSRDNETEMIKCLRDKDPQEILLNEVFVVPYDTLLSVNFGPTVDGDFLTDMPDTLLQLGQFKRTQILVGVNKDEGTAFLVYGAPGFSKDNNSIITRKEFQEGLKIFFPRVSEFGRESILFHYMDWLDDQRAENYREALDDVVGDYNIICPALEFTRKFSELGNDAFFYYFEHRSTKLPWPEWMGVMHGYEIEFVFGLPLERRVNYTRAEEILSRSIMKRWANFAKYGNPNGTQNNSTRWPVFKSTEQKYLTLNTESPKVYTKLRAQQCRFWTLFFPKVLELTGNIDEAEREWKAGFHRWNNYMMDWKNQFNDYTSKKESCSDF

Compound `O=c1c2ccccc2ncn1Cc1ccc[n+](Cc2cccc(Br)c2)c1` [BOP-1, 1-(3-Bromobenzyl)-3-((4-oxoquinazolin-3(4H)-yl)methyl) pyridin-1-ium bromide] has an IC50 [1, 3] of 5.9 ± 0.07 µM and an IC50 [2] of 6.76 ± 0.04 µM.
Work on `O=c1c2ccccc2ncn1Cc1ccc[n+](Cc2ccc(Cl)cc2)c1` [BOP-2, 1-(4-Chlorobenzyl)-3-((4-oxoquinazolin-3(4H)-yl)methyl) pyridin-1-ium chloride] yielded an IC50 [1, 3] of 47.1 ± 0.48 µM and an IC50 [2, 4] of 29 ± 0.43 µM.
`O=c1c2ccccc2ncn1Cc1ccc[n+](Cc2ccc(F)cc2)c1` [BOP-3, 1-(4-Flourobenzyl)-3-((4-oxoquinazolin-3(4H)-yl)methyl) pyridin-1-ium chloride] showed an IC50 [1, 5] of over 100 µM and an IC50 [2, 6] of 70.43 ± 0.41 µM.
`N#Cc1ccc(C[n+]2cccc(Cn3cnc4ccccc4c3=O)c2)cc1` [BOP-4, 1-(4-Cyanobenzyl)-3-((4-oxoquinazolin-3(4H)-yl)methyl) pyridin-1-ium bromide] gave an IC50 [1, 3] of over 100 µM and an IC50 [2, 4] of over 100 µM.
For `O=c1c2ccccc2ncn1Cc1ccc[n+](Cc2ccccc2)c1` [BOP-5, 1-Benzyl-3-((4-oxoquinazolin-3(4H)-yl)methyl) pyridin-1-ium bromide], the IC50 [1, 3] was 41.2 ± 0.62 µM and the IC50 [2, 4] was 12.63 ± 0.11 µM.
For `COc1cc2ncn(Cc3ccc[n+](Cc4cccc(Br)c4)c3)c(=O)c2cc1OC` [BOP-6, 1-(3-Bromobenzyl)-3-((6,7-dimethoxy-4-oxoquinazolin-3(4H)-yl)methyl) pyridin-1-ium bromide], the IC50 [1, 3] was 6.77 ± 0.24 µM and the IC50 [2, 4] was 8.77 ± 0.11 µM.
For `COc1cc2ncn(Cc3ccc[n+](Cc4ccc(F)cc4)c3)c(=O)c2cc1OC` [BOP-7, 1-(4-Flourobenzyl)-3-((6,7-dimethoxy-4-oxoquinazolin-3(4H)-yl)methyl) pyridin-1-ium chloride], the IC50 [1, 5] was 21.92 ± 0.2 µM and the IC50 [2, 6] was over 100 µM.
`COc1cc2ncn(Cc3ccc[n+](Cc4ccc(Cl)cc4)c3)c(=O)c2cc1OC.[Cl-]` [BOP-8, 1-(4-Chlorobenzyl)-3-((6,7-dimethoxy-4-oxoquinazolin-3(4H)-yl)methyl) pyridin-1-ium chloride] was tested, and the IC50 [1] was 1.11 ± 0.09 µM, the “BuChE inhibition (result in words)” value ([2]; Ellman's method) was “no inhibitory activity; also recorded: no inhibition” and the IC50 [2, 4] was over 100 µM.
For `COc1cc2ncn(Cc3ccc[n+](Cc4ccc(C#N)cc4)c3)c(=O)c2cc1OC` [BOP-9, 1-(4-Cyanobenzyl)-3-((6,7-dimethoxy-4-oxoquinazolin-3(4H)-yl)methyl) pyridin-1-ium bromide], the IC50 [1, 3] was over 100 µM and the IC50 [2, 4] was over 100 µM.
With `COc1cc2ncn(Cc3ccc[n+](Cc4ccccc4)c3)c(=O)c2cc1OC` [BOP-10, 1-Benzyl-3-((6,7-dimethoxy-4-oxoquinazolin-3(4H)-yl)methyl) pyridin-1-ium bromide] the IC50 [1, 3] was 10.1 ± 0.28 µM and the IC50 [2, 4] was 18.8 ± 0.34 µM.
